Assays:
MCF-7 cells = assay: In vitro cytotoxicity, MTT assay, MCF-7; assay type: cell-based, human; conditions: 48 h continuous drug exposure
Procedure: (§1) All cell lines used in this study were purchased from the American Type Culture Collection (ATCC, United States). A549, MCF-7, and HeLa were grown in Dulbecco's modified Eagle's medium (containing 10% FBS in a humidified atmosphere of 5% CO2 at 37° C.). HCT116 cells were cultured in Eagle's minimal essential medium (MEM) containing non-essential amino acids, 1 mM sodium pyruvate, […] bovine insulin, and 10% FBS. Cells were trypsinized when sub-confluent from T25 flasks/60 mm dishes and seeded in 96-well plates. The synthesized test compounds were evaluated for their in vitro antiproliferative in four different human cancer cell lines. A protocol of 48 h continuous drug exposure was used, and a MTT cell proliferation assay was used to estimate cell viability or growth. The cell lines were grown in their respective media containing 10% fetal bovine serum and were seeded into 96-well microtiter plates in 200 μL, aliquots at plating densities depending on the doubling time of individual cell lines. The microtiter plates were incubated at 37° C., 5% CO2, 95% air, and 100% relative humidity for 24 h prior to addition of experimental drugs. Aliquots of 2 μL, of the test compounds were added to the wells already containing 198 μL, of cells, resulting in the required final drug concentrations. For each compound, four concentrations (1, 10, 100, and 1000 μM) were evaluated, and each was done in triplicate wells. Plates were incubated further for 48 h, and the assay was terminated by the addition of 10 μL, of 5% MTT and incubated for 60 min at 37° C. Later, the plates were air-dried. Bound stain was subsequently eluted with 100 μL, of DMSO, and the absorbance was read on an multimode plate reader (Tecan M200) at a wavelength of 560 nm. Percent growth was calculated on a plate by plate basis for test wells relative to control wells. The above determinations were repeated thrice. The growth inhibitory effects of the compounds were analyzed by generating dose response curves as a plot of the percentage surviving cells versus compound concentration. The sensitivity of the cancer cells to the test compound was expressed in terms of IC50, a value defined as the concentration of compound that produced 50% reduction as compared to the control absorbance. (A. S. Kumar, M. A. Reddy, N. Jain, C. Kishor, T. R. Murthy, D. Ramesh, B. Supriya, A. Addlagatta, S. V. Kalivendi, B. Sreedhar. Eur. J. Med. Chem. 60 (2013) 305-24).

HeLa cells = assay: In vitro cytotoxicity, MTT assay, HeLa; assay type: cell-based, human; conditions: HeLa (cervical carcinoma), 48 h continuous drug exposure
Procedure: as §1

A549 cells = assay: In vitro cytotoxicity, MTT assay, A549; assay type: cell-based, human; conditions: A549 (non-small cell lung cancer), 48 h continuous drug exposure
Procedure: as §1

[1] = system: A549, HeLa, MCF-7 and HCT116 cells; assay: In vitro cytotoxicity, MTT assay, summary over all four cancer cell lines; assay type: cell-based; conditions: Homo sapiens, range over the group of compounds and the four cell lines, read-out: IC50 value range towards all the cancer cell lines
Procedure: as §1

HCT116 cells = assay: In vitro cytotoxicity, MTT assay, HCT116; assay type: cell-based, human; conditions: 48 h continuous drug exposure
Procedure: as §1

[2] = Homo sapiens, MCF7, 48 h, MCF-7 (breast cancer)
[3] = Homo sapiens, HCT-116, HCT116 (colon carcinoma)

Row | Structure (SMILES) | IC50 (MCF-7 cells; [2]) | IC50 (HeLa cells; Homo sapiens) | IC50 (A549 cells; Homo sapiens) | IC50 [1] | IC50 (HCT116 cells; [3]) | IC50 (MCF-7 cells; MCF-7 (breast cancer)) | IC50 (HeLa cells) | IC50 (A549 cells) | IC50 (HCT116 cells; HCT116 (colon carcinoma)) | IC50 (MCF-7 cells; Homo sapiens, MCF7, MCF-7 (breast cancer))
1 | COc1ccc(/C=C\c2cc(OC)c(OC)c(OC)c2)cc1N/C=C\C(=O)c1ccc(OC(F)(F)F)cc1 [Compound 10o, (Z)-3-((2-methoxy-5-((Z)-3,4,5-trimethoxystyryl)phenyl)amino)-1-(4-(trifluoromethoxy)phenyl)prop-2-en-1-one] | 1.32 µM | 0.26 µM | 2.69 µM | 110 to 4680 nM | 2.95 µM |  |  |  |  | 
2 | COc1cc(/C=C\c2cc(OC)c(OC)c(OC)c2)cc(N/C=C\C(=O)c2ccc(OC(F)(F)F)cc2)c1OC [Compound 11o, (Z)-3-((2,3-dimethoxy-5-((Z)-3,4,5-trimethoxystyryl)phenyl)amino)-1-(4-(trifluoromethoxy)phenyl)prop-2-en-1-one] | 5.7 µM | 1.86 µM | 0.21 µM | 120 to 5750 nM | 7.08 µM | 5.75 µM |  |  |  | 
3 | COc1ccc(/C=C\c2cc(OC)c(OC)c(OC)c2)c(N/C=C\C(=O)c2cc(OC)c(OC)c(OC)c2Br)c1O [Compound 16y, (Z)-1-(2-bromo-3,4,5-trimethoxyphenyl)-3-((2-hydroxy-3-methoxy-6-((Z)-3,4,5-trimethoxystyryl)phenyl)amino)prop-2-en-1-one] | 0.19 µM | 1.78 µM | 7.08 µM | 180 to 7330 nM | 2.69 µM |  |  |  |  | 
4 | COc1ccc(/C=C\c2cc(OC)c(OC)c(OC)c2)cc1N/C=C\C(=O)c1cc(OC)c(OC)c(OC)c1 [Compound 10x, (Z)-3-((2-methoxy-5-((Z)-3,4,5-trimethoxystyryl)phenyl)amino)-1-(3,4,5-trimethoxyphenyl)prop-2-en-1-one] | 0.27 µM | 0.26 µM | 1.68 µM | 110 to 4680 nM | 1.51 µM |  |  |  |  | 
5 | COc1ccc(/C=C\c2cc(OC)c(OC)c(OC)c2)c(N/C=C\C(=O)c2cc(OC)c(OC)c(OC)c2)c1O [Compound 16x, (Z)-3-((2-hydroxy-3-methoxy-6-((Z)-3,4,5-trimethoxystyryl)phenyl)amino)-1-(3,4,5-trimethoxyphenyl)prop-2-en-1-one] | 0.23 µM | 0.56 µM | 0.25 µM | 180 to 7330 nM | 3.63 µM |  |  |  |  | 
6 | COc1ccc(/C=C\c2cc(OC)c(OC)c(OC)c2)cc1N/C=C\C(=O)c1cc(OC)c(OC)c(OC)c1Br [Compound 10y, (Z)-1-(2-bromo-3,4,5-trimethoxyphenyl)-3-((2-methoxy-5-((Z)-3,4,5-trimethoxystyryl)phenyl)amino)prop-2-en-1-one] | 2.95 µM | 0.25 µM | 3.51 µM | 110 to 4680 nM | 3.98 µM |  |  |  |  | 
7 | COc1ccc(C(=O)/C=C\Nc2cc(/C=C\c3cc(OC)c(OC)c(OC)c3)cc(OC)c2OC)cc1[N+](=O)[O-] [Compound 11t, (Z)-3-((2,3-dimethoxy-5-((Z)-3,4,5-trimethoxystyryl)phenyl)amino)-1-(4-methoxy-3-nitrophenyl)prop-2-en-1-one] | 1.55 µM | 1.2 µM | 0.15 µM | 120 to 5750 nM | 4.79 µM |  |  |  |  | 
8 | COc1ccc(/C=C\c2cc(OC)c(OC)c(OC)c2)cc1OP(=O)(O)O [Ca-4, Combretastatin, reference compound] |  |  |  |  |  | 0.58 µM | 0.58 µM | 0.31 µM | 3.98 µM | 
9 | COc1ccc(C(=O)/C=C\Nc2c(/C=C\c3cc(OC)c(OC)c(OC)c3)ccc(OC)c2O)cc1O [Compound 16q, (Z)-3-((2-hydroxy-3-methoxy-6-((Z)-3,4,5-trimethoxystyryl)phenyl)amino)-1-(3-hydroxy-4-methoxyphenyl)prop-2-en-1-one] | 0.2 µM | 4.17 µM | 1.58 µM | 180 to 7330 nM | 6.76 µM |  |  |  |  | 
10 | COc1ccc(C=Cc2cc(OC)c(OC)c(OC)c2)cc1N/C=C\C(=O)c1cn(C)c2ccccc12 [Compound 10w, (Z)-3-(2-methoxy-5-(3,4,5-trimethoxystyryl)phenylamino)-1-(1-methyl-1H-indol-3-yl)prop-2-en-1-one] | 1.07 µM | 0.46 µM | 0.67 µM | 110 to 4680 nM | 0.37 µM |  |  |  |  | 
11 | COc1ccc(C=Cc2cc(OC)c(OC)c(OC)c2)cc1N/C=C\C(=O)c1c[nH]c2ccccc12 [Compound 10v, (Z)-1-(1H-indol-3-yl)-3-(2-methoxy-5-(3,4,5-trimethoxystyryl)phenylamino)prop-2-en-1-one] | 0.11 µM | 0.53 µM | 0.17 µM | 110 to 4680 nM | 0.33 µM |  |  |  |  | 
12 | COc1ccc(C(=O)/C=C\Nc2c(/C=C\c3cc(OC)c(OC)c(OC)c3)ccc(OC)c2O)cc1N [Compound 16u] | 0.18 µM | 2.51 µM | 1.32 µM | 180 to 7330 nM | 1.74 µM |  |  |  |  | 
13 | COc1ccc(C(=O)/C=C\Nc2cc(/C=C\c3cc(OC)c(OC)c(OC)c3)ccc2OC)cc1O [Compound 10q, (Z)-1-(3-hydroxy-4-methoxyphenyl)-3-((2-methoxy-5-((Z)-3,4,5-trimethoxystyryl)phenyl)amino)prop-2-en-1-one] | 4.68 µM | 0.23 µM | 3.89 µM | 110 to 4680 nM | 0.83 µM |  |  |  |  | 
14 | COc1ccc(C(=O)/C=C\Nc2cc(/C=C\c3cc(OC)c(OC)c(OC)c3)cc(OC)c2OC)cc1N [Compound 11u, (Z)-1-(3-amino-4-methoxyphenyl)-3-((2,3-dimethoxy-5-((Z)-3,4,5-trimethoxystyryl)phenyl)amino)prop-2-en-1-one] | 5.25 µM | 4.27 µM | 0.12 µM | 120 to 5750 nM | 7.59 µM |  |  |  |  | 
15 | COc1ccc(C(=O)/C=C\Nc2cc(/C=C\c3cc(OC)c(OC)c(OC)c3)cc(OC)c2OC)cc1O [Compound 11q, (Z)-3-((2,3-dimethoxy-5-((Z)-3,4,5-trimethoxystyryl)phenyl)amino)-1-(3-hydroxy-4-methoxyphenyl)prop-2-en-1-one] | 2.09 µM | 1.91 µM | 0.32 µM | 120 to 5750 nM | 3.24 µM |  |  |  |  | 
16 | COc1ccc(/C=C\c2cc(OC)c(OC)c(OC)c2)c(N/C=C\C(=O)c2ccc(OC(F)(F)F)cc2)c1O [Compound 16o, (Z)-3-((2-hydroxy-3-methoxy-6-((Z)-3,4,5-trimethoxystyryl)phenyl)amino)-1-(4-(trifluoromethoxy)phenyl)prop-2-en-1-one] | 2.24 µM | 7.08 µM | 1.32 µM | 180 to 7330 nM | 1.95 µM |  |  |  |  | 
17 | COc1cc(/C=C\c2cc(OC)c(OC)c(OC)c2)cc(N/C=C\C(=O)c2cc(OC)c(OC)c(OC)c2)c1OC [Compound 11x, (Z)-3-((2,3-dimethoxy-5-((Z)-3,4,5-trimethoxystyryl)phenyl)amino)-1-(3,4,5-trimethoxyphenyl)prop-2-en-1-one] | 7.08 µM | 3.72 µM | 3.33 µM | 120 to 5750 nM | 0.28 µM |  |  |  |  | 
18 | COc1cc(C=Cc2cc(OC)c(OC)c(OC)c2)cc(N/C=C\C(=O)c2cn(C)c3ccccc23)c1OC [Compound 11w, (Z)-3-(2,3-dimethoxy-5-(3,4,5-trimethoxystyryl)phenylamino)-1-(1-methyl-1H-indol-3-yl)prop-2-en-1-one] | 3.39 µM | 5.89 µM | 0.14 µM | 120 to 5750 nM | 1.95 µM |  |  |  |  | 
19 | COc1cc(C=Cc2cc(OC)c(OC)c(OC)c2)cc(N/C=C\C(=O)c2c[nH]c3ccccc23)c1OC [Compound 11v, (Z)-3-(2,3-dimethoxy-5-(3,4,5-trimethoxystyryl)phenylamino)-1-(1H-indol-3-yl)prop-2-en-1-one] |  | 0.67 µM | 0.56 µM | 120 to 5750 nM | 1.48 µM |  |  |  |  | 3.02 µM
20 | COc1cc(/C=C\c2cc(OC)c(OC)c(OC)c2)cc(N/C=C\C(=O)c2cc(OC)c(OC)c(OC)c2Br)c1OC [Compound 11y, (Z)-1-(2-bromo-3,4,5-trimethoxyphenyl)-3-((2,3-dimethoxy-5-((Z)-3,4,5-trimethoxystyryl)phenyl)amino)prop-2-en-1-one] | 5.37 µM | 1.58 µM | 0.28 µM | 120 to 5750 nM | 0.3 µM |  |  |  |  | 
